Patent US6610687B1, “Benzofuranylsulfonates” (Bayer Aktiengesellschaft, priority 1999, dated 2003)

Key:
human PMN (neutrophils) = assay: Inhibition of FMLP-stimulated production of superoxide radical anions; format: cell-based; details: Neutrophil, read-out: IC50 O2^−
Experimental: 1. Preparation of Human PMN
Blood was taken from healthy subjects by venous puncture and neutrophils were purified by dextran sedimentation and resuspended in the buffered medium.
2. Inhibition of FMLP-stimulated Production of Superoxide Racidal Anions.
Neutrophils (2.5×10^5 ml^−1) were mixed with cytochrome C (1.2 mg/ml) in the wells of a microtitre plate. Compounds according to the invention were added in dimethyl sulphoxide (DMSO). Compound concentration ranged from 2.5 nM to 10 μM, the DMSO concentration was 0.1% v/v in all wells. After addition of cytochalasin b (5 μg×ml^−1) the plate was incubated for 5 min at 37° C. Neutrophils were then stimulated by addition of 4×10^−8 M FMLP and superoxide generation measured as superoxide dismutase inhibitable reduction of cytochrome C by monitoring the OD550 in a microtitre plate spectrophotometer, e.g. a thermomax microtitre plate spectrophotometer. Initial rates were calculated using a kinetic calculation programme such as a softmax programme. Blank wells contained 200 units of superoxide dismutase.
The inhibition of superoxide production was calculated as follows: [formula]
Rx=Rate of the well containing the compound according to the invention.
Ro=Rate in the control well.
Rb=Rate in the superoxide dismutase containing blank well.

[1] = target: PMN phosphodiesterase (PDE IV); assay: Assay of PMN phosphodiesterase; format: biochemical; details: particulate fraction from human PMN, treated with sodium vanadate/glutathione
Experimental: 4. Assay of PMN Phosphodiesterase
This was performed as a particulate fraction from human PMN essentially as described by Souness and Scott (Biochem. J. 291, 389-395, 1993). Particulate fractions were treated with sodium vanadate/glutathione as described by the authors to express the descrete stereospecific site on the phosphodiesterase enzyme.

| IC50 (human PMN (neutrophils)) | IC50 [1] | SMILES |
| --- | --- | --- |
| 1 nM | 1 nM | NC(=O)Nc1c(C(=O)c2ccc(Cl)cc2Cl)oc2cc(OS(=O)(=O)c3cccc4cccnc34)ccc12 [Example 49] |
| 7 nM | 1 nM | Cc1ccc(C(=O)c2oc3cc(OS(=O)(=O)c4cn(C)cn4)ccc3c2NC(N)=O)c(C)c1 [Example 36] |
| 20 nM | 33 nM | NC(=O)Nc1c(C(=O)c2ccc(Cl)cc2Cl)oc2cc(OS(=O)(=O)Cc3ccc(Cl)nc3)ccc12 [Example 47] |
| 60 nM | 130 nM | Cc1nn(C)c(Cl)c1S(=O)(=O)Oc1ccc2c(NC(N)=O)c(C(=O)c3ccc(F)cc3F)oc2c1 [Example 24] |
| 20 nM | 40 nM | NC(=O)Nc1c(C(=O)c2ccc(Cl)cc2Cl)oc2cc(OS(=O)(=O)c3ccc(-c4ccccn4)s3)ccc12 [Example 21] |
| 65 nM | 21 nM | CC(=O)Nc1ccc(S(=O)(=O)Oc2ccc3c(NC(N)=O)c(C(=O)c4ccc(Cl)cc4)oc3c2)cc1 [Example 13] |

| SMILES | IC50 (human PMN (neutrophils)) | IC50 [1] |
| --- | --- | --- |
| CN(C)S(=O)(=O)Oc1ccc2c(NC(N)=O)c(C(=O)c3cc(Cl)ccc3Cl)oc2c1 [Example 46] | 35 nM | 6 nM |
